Results: patent EP3981864A1, “DETERGENT COMPOSITION” (priority 2020, dated 2022)

Experiments:
[1] = biological target: T1, Oryza sativa αDOX (SEQ ID NO: 1), fatty acid alpha-dioxygenase, Q9M5J1, N-terminal His-tag variant SEQ ID NO: 249 (Oryza sativa subsp. japonica, UniProt Q2QRV3); assay: Alpha-dioxygenase activity assay (oxygen consumption, TON); format: biochemical; conditions: fatty acid 100 µM, enzyme 6 ppm, 50 mM HEPES pH 9.0, 37°C; initial rate of oxygen consumption / enzyme concentration
T1 construct: made in house; host or cells: Escherichia coli BL21 (DE3), pET30a
T1 sequence (Q2QRV3 1-618): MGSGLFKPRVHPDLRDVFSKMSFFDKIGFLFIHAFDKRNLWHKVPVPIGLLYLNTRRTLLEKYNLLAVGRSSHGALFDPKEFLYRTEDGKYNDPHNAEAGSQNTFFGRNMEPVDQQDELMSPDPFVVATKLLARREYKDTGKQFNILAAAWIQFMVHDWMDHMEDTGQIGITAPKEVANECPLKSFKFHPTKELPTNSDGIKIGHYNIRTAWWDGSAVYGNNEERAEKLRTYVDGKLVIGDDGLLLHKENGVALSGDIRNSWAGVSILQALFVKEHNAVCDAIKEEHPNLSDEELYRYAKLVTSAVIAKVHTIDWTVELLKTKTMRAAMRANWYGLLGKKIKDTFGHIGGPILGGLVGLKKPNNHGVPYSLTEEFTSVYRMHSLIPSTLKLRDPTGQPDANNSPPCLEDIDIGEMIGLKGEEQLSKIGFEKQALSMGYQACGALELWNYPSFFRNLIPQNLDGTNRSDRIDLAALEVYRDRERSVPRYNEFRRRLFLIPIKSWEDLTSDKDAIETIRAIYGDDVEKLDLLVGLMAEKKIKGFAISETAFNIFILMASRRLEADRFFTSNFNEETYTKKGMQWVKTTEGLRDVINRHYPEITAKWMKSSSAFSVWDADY
Text: (§1) Oryza sativa αDOX (SEQ ID NO: 1) is a fatty acid alpha-dioxygenase that converts fatty acids into the corresponding 2-hydroperoxy fatty acids and is included as an example of the present invention. A codon optimized gene (SEQ ID NO: 248) encoding for an alpha-dioxygenase variant (SEQ ID NO: 249), including an N-terminal amino acid sequence containing a His-tag was designed and synthesized by Genscript. After gene synthesis, the protein was expressed and purified. In brief, the complete synthetic gene sequence was subcloned into a pET30a vector using the NdeI/HindIII cloning sites. For heterologous expression, Escherichia coli BL21 (DE3) cells were transformed with the recombinant plasmid and a single colony was inoculated into LB medium containing kanamycin (50 mg/L). A pre-starter culture was then inoculated into flasks containing Magic Media (Thermo Fisher, Catalog # K6803) supplemented with kanamycin (50 mg/L) and incubated at 16 °C for 72 h. At an OD600nm = 0.5 - 1.0, 5-aminolevulinic acid (final concentration 0.5 mM) was added. Cells were harvested by centrifugation at 5000 rpm and 4°C and the pellet was lysed using a bacterial cell lysis buffer (B-PER - Themo Fisher, Waltham, MA). After centrifugation, the supernatant was collected, and the protein was purified by one-step purification using HisPur™ Ni-NTA Spin Columns (Thermo Scientific, Catalog # 88226) and standard protocols known in the art. The protein was concentrated using a 10 kDa MW cutoff Amicon Ultra centrifugal filter unit (Millipore Sigma, Catalog# UFC901024), followed by desalting using a disposable PD-10 desalting column (GE Healthcare Life Sciences, Catalog# 17085101) and a buffer containing 50 mM Tris-HCl, 500 mM NaCl, and 10% Glycerol at pH 8.0. […]
(§2) Reactions with alpha-dioxygenases were performed as follows. […] The reaction was incubated for up to 10 minutes at 37°C with 200 rpm agitation and the conversion was monitored using an oxygen sensor. The TON (in s-1) were calculated as the ratio between the initial rate of oxygen consumption (in µM/s) and the concentration of enzyme (in µM). […]

[2] = system: Medicago truncatula αDOX (SEQ ID NO: 9), fatty acid alpha-dioxygenase, A4PRI0, N-terminal His-tag variant SEQ ID NO: 265 (comparative); assay: as above; format: biochemical; conditions: fatty acid 100 µM, enzyme 6 ppm, 50 mM HEPES pH 9.0, 37°C; initial rate of oxygen consumption / enzyme concentration
Text: as §1, with “Medicago truncatula αDOX” for “Oryza sativa αDOX”, “NO: 9)” for “NO: 1)”, “as a comparative” for “as an”, “NO: 264)” for “NO: 248)”, “NO: 265),” for “NO: 249),”
as §2

CCCCCCCC/C=C\CCCCCCCC(=O)O [Oleic Acid]
Oleic Acid, TON [1]: 5.54 s⁻¹ | Oleic Acid, TON [2]: 0.06 s⁻¹

CCCCCCCCCCCCCCCC(=O)O [Palmitic Acid]
Palmitic Acid, TON [1]: 20.58 s⁻¹ | Palmitic Acid, TON [2]: 0.57 s⁻¹

CCCCCCCCCCCCCCCCCC(=O)O [Stearic Acid]
Stearic Acid, TON [1]: 8.02 s⁻¹ | Stearic Acid, TON [2]: 0.02 s⁻¹
